Results from US7973069B2 (PTC Therapeutics, Inc., priority 2004, dated 2011).
Several values for one entry are separate records, joined by “and”; a condition that tells them apart may be missing. Equal entries are not always repeated.

system: HCV replicon; type: cell-based

| SMILES | IC50 |
| --- | --- |
| C=CCNC(=O)Nc1ccc(-c2c(C#N)c3ccc(OC(F)F)cc3n2CC)cc1 [Compound 1139] | 0.5 to 2 µM |
| CCn1c(-c2ccc(NC(C)=O)cc2)c(C#N)c2ccc(OC(F)(F)F)cc21 [Compound 913] | 0.5 to 2 µM |
| CCCn1c(-c2ccc(NC(=O)OCC)cc2)c(C#N)c2ccc(OCC)cc21 [Compound 1063] | 0.5 to 2 µM |
| CCCS(=O)(=O)Nc1ccc(-c2c(C#N)c3ccc(OC)cc3n2CC)cc1C [Compound 961] | 0.5 to 2 µM |
| CCCn1c(-c2ccc(NS(=O)(=O)CCC)cc2)c(C#N)c2cc(OC)ccc21 [Compound 1041] | 0.5 to 2 µM and < 0.5 µM |
| CCCOC(=O)Nc1ccc(-c2c(C#N)c3ccc(OC)cc3n2CC)cc1C [Compound 965] | 0.5 to 2 µM |
| CCCn1c(-c2ccc(NC(=O)OC)cc2)c(C#N)c2ccc(OCC)cc21 [Compound 1062] | 0.5 to 2 µM |
| CCCOc1ccc2c(C#N)c(-c3ccc(NC(=O)OC(C)C4CC4)cc3)n(C(C)C)c2c1 (centres unmarked) [Compound 1242] | < 0.5 µM |
| CCCOC(=O)Nc1cccc(-c2c(C#N)c3ccc(OCCCN4CCOCC4)cc3n2CC)c1 [Compound 1034] | < 0.5 µM |
| CCCCNC(=O)Nc1ccc(-c2c(C#N)c3cc(OCC)ccc3n2C2CCC2)cc1 [Compound 1225] | 0.5 to 2 µM and < 0.5 µM |
| CCOc1ccc2c(C#N)c(-c3ccc(NC(=O)OC(C)COC)cc3)n(C3CCC3)c2c1 (centres unmarked) [Compound 1313] | < 0.5 µM |
| CCn1c(-c2ccc(NC(=O)OCCCl)cc2)c(C#N)c2ccc(OCCCN3CCOCC3)cc21 [Compound 1114] | < 0.5 µM |
| CCOc1ccc2c(c1)c(C#N)c(-c1ccc(NC(=O)NC(C)C)cc1)n2C1CCC1 [Compound 1224] | 0.5 to 2 µM |
| CCOc1ccc2c(C#N)c(-c3ccc(N(CC)C(=O)OC(C)C)cc3)n(C3CC3)c2c1 [Compound 1237] | 0.5 to 2 µM |
| CC(C)(C)OC(=O)Nc1ccc(-c2c(C#N)c3ccc(OCCN4CCCC4)cc3n2C2CCC2)cc1 [Compound 1121] | < 0.5 µM |
| CCOc1ccc2c(c1)c(C#N)c(-c1ccc(NS(=O)(=O)CC)cc1)n2C1CCC1 [Compound 1228] | 0.5 to 2 µM |
| CCNC(=O)Nc1cccc(-c2c(C#N)c3ccc(OCCCN4CCOCC4)cc3n2CC)c1 [Compound 1043] | 0.5 to 2 µM |
| COc1ccc2c(c1)c(C#N)c(-c1ccc(NC(=O)OCC(C)C)cc1)n2C1CCC1 [Compound 1178] | < 0.5 µM |
| CCCCNC(=O)Nc1ccc(-c2c(C#N)c3ccc(OC)cc3n2CC)cc1F [Compound 910] | 0.5 to 2 µM |
| CCCn1c(-c2ccc(NS(C)(=O)=O)cc2)c(C#N)c2ccc(OCc3ccccc3)cc21 [Compound 921] | 0.5 to 2 µM |
| CC(OC(=O)Nc1ccc(-c2c(C#N)c3ccc(OC(F)F)cc3n2CC2CC2)cc1)C1CC1 (centres unmarked) [Compound 1267] | 0.5 to 2 µM |
| CCCCNC(=O)Nc1ccc(-c2c(C#N)c3ccc(OCCF)cc3n2CC)cc1 [Compound 957] | < 0.5 µM |
| C=CCNC(=O)Nc1ccc(-c2c(C#N)c3cc4c(cc3n2C2CCC2)OCO4)cc1 [Compound 1304] | 0.5 to 2 µM |
| CCn1c(-c2ccc(NC(=O)OCCF)cc2)c(C#N)c2ccc(OC(F)(F)F)cc21 [Compound 888] | 0.5 to 2 µM |
| CCOc1ccc2c(C#N)c(-c3ccc(NC(=O)NC(C)C)cc3)n(CC3CC3)c2c1 [Compound 1120] | < 0.5 µM |
| CCn1c(-c2ccc(NC(=O)C3CC3)cc2)c(C#N)c2ccc(OCCN3CCN(C)CC3)cc21 [Compound 952] | 0.5 to 2 µM |
| CCOc1ccc2c(C#N)c(-c3ccc(NC(=O)OC(C)C(C)(C)C)cc3)n(C3CCC3)c2c1 (centres unmarked) [Compound 1312] | < 0.5 µM |

| SMILES | IC50 |
| --- | --- |
| CCOc1ccc2c(c1)c(C#N)c(-c1ccc(NC(=O)OC3CCOC3)cc1)n2C1CCC1 (centres unmarked) [Compound 1297] | 0.5 to 2 µM |
| CCn1c(-c2ccc(NC(=O)OC)cc2)c(C#N)c2ccc(OCCCCl)cc21 [Compound 1029] | 0.5 to 2 µM |
| CCOc1ccc2c(C#N)c(-c3ccc(NC(=O)OC)cc3)n(C3CCC3)c2c1 [Compound 970] | < 0.5 µM |
| C=CCOC(=O)Nc1ccc(-c2c(C#N)c3ccc(OCC)cc3n2C2CCC2)cc1 [Compound 981] | < 0.5 µM |
| CCOC(=O)Nc1ccc(-c2c(C#N)c3ccc(OCC)cc3n2CC2CC2)cc1 [Compound 1148] | < 0.5 µM |
| CCC(C)OC(=O)Nc1ccc(-c2c(C#N)c3ccc(OC(F)F)cc3n2CC2CC2)cc1 (centres unmarked) [Compound 1268] | 0.5 to 2 µM |
| CCOc1ccc2c(c1)c(C#N)c(-c1ccc(NC(=O)OC3CCC3)cc1)n2C1CCC1 [Compound 1292] | < 0.5 µM |
| CCOc1ccc2c(c1)c(C#N)c(-c1ccc(NC(=O)NC(C)C)cc1)n2C1CCC1 [Compound 1223] | < 0.5 µM |
| CCOC(=O)Nc1ccc(-c2c(C#N)c3ccc(OC(F)F)cc3n2CC)cc1 [Compound 1131] | 0.5 to 2 µM |
| CCn1c(-c2ccc(NC(=O)OCC(C)C)cc2)c(C#N)c2ccc(OC(F)F)cc21 [Compound 1134] | 0.5 to 2 µM |
| COc1ccc2c(C#N)c(-c3ccc(NC(=O)OCC(C)(C)C)cc3)n(C3CCC3)c2c1 [Compound 1078] | < 0.5 µM and 0.5 to 2 µM |
| N#Cc1c(-c2ccc(NC(=O)OCC3CCC3)cc2)n(C2CCC2)c2cc(OCC3CCCO3)ccc12 (centres unmarked) [Compound 1287] | < 0.5 µM |
| CCn1c(-c2ccc(NC(=O)C3CC3)cc2)c(C#N)c2ccc(OCCN3CCOCC3)cc21 [Compound 1025] | 0.5 to 2 µM |
| CCC(=O)Nc1ccc(-c2c(C#N)c3ccc(OC(F)(F)F)cc3n2CC)cc1 [Compound 914] | 0.5 to 2 µM |
| CCOc1ccc2c(C#N)c(-c3ccc(NC(=O)OCc4ccccc4)cc3)n(CC3CC3)c2c1 [Compound 1153] | < 0.5 µM |
| CCCOC(=O)Nc1ccc(-c2c(C#N)c3ccc(OCC)cc3n2CCC)cc1 [Compound 1055] | 0.5 to 2 µM and < 0.5 µM |
| COC(=O)c1ccc2c(C#N)c(-c3ccc(NC(=O)NC(C)C)cc3)n(C3CCC3)c2c1 [Compound 1301] | < 0.5 µM |
| CCOc1ccc2c(C#N)c(-c3ccc(NC(=O)OCCF)cc3)n(CC)c2c1 [Compound 950] | 0.5 to 2 µM |
| CCCCNC(=O)Nc1ccc(-c2c(C#N)c3ccc(OC(F)(F)F)cc3n2CC)cc1 [Compound 894] | 0.5 to 2 µM |
| CCNC(=O)Nc1ccc(-c2c(C#N)c3ccc(OC)cc3n2CC)cc1F [Compound 909] | 0.5 to 2 µM |
| CCCCn1c(-c2ccc(NC(=O)NCCC)cc2)c(C#N)c2ccc(OCC)cc21 [Compound 1066] | 0.5 to 2 µM |
| N#Cc1c(-c2ccc(NC(=O)OC3CCCC3)cc2)n(C2CCC2)c2cc(OC(F)F)ccc12 [Compound 1186] | 0.5 to 2 µM |
| COc1ccc2c(C#N)c(-c3ccc(NC(=O)C4CC4)cc3)n(CC3CC3)c2c1 [Compound 983] | 0.5 to 2 µM |
| CCn1c(-c2ccc(NS(=O)(=O)C(C)C)cc2)c(C#N)c2ccc(OC(F)(F)F)cc21 [Compound 884] | < 0.5 µM |
| CCOC(=O)Nc1ccc(-c2c(C#N)c3ccc(OCC)cc3n2C(C)C)cc1 [Compound 1065] | 0.5 to 2 µM and < 0.5 µM |
| COc1ccc2c(C#N)c(-c3ccc(NC(=O)OCc4ccccc4)cc3)n(C3CCC3)c2c1 [Compound 1079] | < 0.5 µM |
| CCn1c(-c2cccc(NC(=O)Oc3ccc(OC)cc3)c2)c(C#N)c2ccc(OCCCCl)cc21 [Compound 1028] | < 0.5 µM |

| SMILES | IC50 |
| --- | --- |
| CCCCOC(=O)Nc1ccc(-c2c(C#N)c3ccc(O)cc3n2CC)cc1 [Compound 1086] | < 0.5 µM |
| CCn1c(-c2ccc(NS(=O)(=O)C3CC3)cc2)c(C#N)c2ccc(OC3CC3)cc21 [Compound 1047] | < 0.5 µM |
| CCn1c(-c2ccc(N3CC(=O)NC3=O)cc2)c(C#N)c2ccc(OC)cc21 [Compound 994] | 0.5 to 2 µM |
| CC(C)NC(=O)Nc1ccc(-c2c(C#N)c3ccc(OCCF)cc3n2C2CCC2)cc1 [Compound 1108] | < 0.5 µM |
| CCn1c(-c2ccc(NC(=O)OC)cc2)c(C#N)c2ccc(OC(F)(F)F)cc21 [Compound 886] | 0.5 to 2 µM |
| CCN(CC)CCOc1ccc2c(C#N)c(-c3ccc(NC(=O)OC(C)C)cc3)n(C3CCC3)c2c1 [Compound 1278] | < 0.5 µM |
| CCCn1c(-c2ccc(NC(=O)NCC)cc2)c(C#N)c2cc(OC)ccc21 [Compound 999] | 0.5 to 2 µM |
| CCCOc1ccc2c(C#N)c(-c3ccc(NC(=O)OC(C)CC)cc3)n(C(C)C)c2c1 (centres unmarked) [Compound 1246] | < 0.5 µM |
| CCCOc1ccc2c(C#N)c(-c3ccc(NC(=O)OC4CCOC4)cc3)n(C(C)C)c2c1 (centres unmarked) [Compound 1249] | < 0.5 µM |
| CCOc1ccc2c(C#N)c(-c3ccc(NC(=O)OCCF)cc3)n(C3CCC3)c2c1 [Compound 974] | < 0.5 µM |
| CCCNC(=O)Nc1ccc(-c2c(C#N)c3cc(OC)ccc3n2CCC)cc1 [Compound 1000] | 0.5 to 2 µM |
| CCC(C)OC(=O)Nc1ccc(-c2c(C#N)c3ccc(OCC4CCCO4)cc3n2C2CCC2)cc1 (centres unmarked) [Compound 1283] | < 0.5 µM |
| CCCn1c(-c2ccc(NC(=O)NCCc3ccccc3)cc2)c(C#N)c2ccc(OCC)cc21 [Compound 1256] | < 0.5 µM |
| CCCS(=O)(=O)Nc1ccc(-c2c(C#N)c3cc(OCC)ccc3n2C2CCC2)cc1 [Compound 1229] | 0.5 to 2 µM |
| C=CCNC(=O)Nc1ccc(-c2c(C#N)c3ccc(OCCCN4CCOCC4)cc3n2CC)cc1 [Compound 1125] | < 0.5 µM |
| CCn1c(-c2ccc(NC(=O)CCc3ccccc3)cc2)c(C#N)c2ccc(OC(F)(F)F)cc21 [Compound 916] | 0.5 to 2 µM |
| C=CCNC(=O)Nc1ccc(-c2c(C#N)c3ccc(OC(F)F)cc3n2CC2CC2)cc1 [Compound 1070] | 0.5 to 2 µM |
| CCOc1ccc2c(c1)c(C#N)c(-c1ccc(NC(=O)OC3CCCC3)cc1)n2C1CCC1 [Compound 1199] | < 0.5 µM |
| CCCOc1ccc2c(C#N)c(-c3ccc(NC(=O)OC(C)C)cc3)n(C(C)C)c2c1 [Compound 1204] | < 0.5 µM |
| CCCNC(=O)Nc1ccc(-c2c(C#N)c3ccc(OCCF)cc3n2CC)cc1 [Compound 955] | 0.5 to 2 µM and < 0.5 µM |
| CC(OC(=O)Nc1ccc(-c2c(C#N)c3ccc(OCCN(C)C)cc3n2C2CCC2)cc1)C1CC1 (centres unmarked) [Compound 1327] | < 0.5 µM |
| CCn1c(-c2ccc(NC(=O)OCCF)cc2)c(C#N)c2ccc(OCCF)cc21 [Compound 945] | 0.5 to 2 µM |
| CCOc1ccc2c(C#N)c(-c3ccc(NC(=O)NC(C)C)cc3)n(CC3CCC3)c2c1 [Compound 1171] | < 0.5 µM |
| CC1(COC(=O)Nc2ccc(-c3c(C#N)c4ccc(OCC5CCCO5)cc4n3C3CCC3)cc2)CC1 (centres unmarked) [Compound 1284] | < 0.5 µM |
| CCCOC(=O)N(CC)c1ccc(-c2c(C#N)c3ccc(OCC)cc3n2C2CCC2)cc1 [Compound 1252] | 0.5 to 2 µM |
| CCC(C)NC(=O)Nc1ccc(-c2c(C#N)c3ccc(OC(F)F)cc3n2CC2CC2)cc1 (centres unmarked) [Compound 1266] | 0.5 to 2 µM |
